Values joined by “and” are separate entries in the source; they are usually repeats but may differ in a detail not shown here. Identical values can stand only once.

We go through 4 molecules from US10596217B2, “Compositions containing a Withania somnifera extract incubated with a filamentous fungus of the Beauvaria genus” (Ethnodyne, priority 2015, dated 2020).

Holding throughout (format): cell-based, rat
In experiment [1] the test system is TH positive dopaminergic neurons of primary mesencephalic culture. In words: Neuroprotective effect on TH positive dopaminergic neuron survival following exposure to 6-OHDA. As to conditions: 6-OHDA 20 μM, 24 h, toxin alone. As for the experimental part:
This study investigated the neuroprotective effect of the plant extract of the invention on rat primary mesencephalic cultures following exposure to 6OHDA. […]
The midbrains were dissociated by trypsinisation for 20 min at 37° C. (Trypsin 0.05%, EDTA 0.02% (Batch 7310713, PanBiotech). The reaction was stopped by the addition of Dulbecco's modified Eagle's medium (DMEM, Batch 9710913, PanBiotech) containing DNAase I grade II (0.1 mg/mL, Batch H131108, PanBiotech) and 10% of foetal calf serum (FCS, Batch 41Q7218K, Gibco). Cells were then mechanically dissociated by 3 passages through a 10 mL pipette. Cells were then centrifuged at 180×g for 10 min at +4° C. on a layer of BSA (3.5%) in L15 medium. The supernatant was discarded and the cell pellets were re-suspended in a defined culture medium consisting of Neurobasal (Batch 1576979, Invitrogen, France) supplemented with 2% of B27 (Batch 1589889, Invitrogen), 2 mM of L-glutamine (Batch 8150713, PanBiotech), 2% of PS solution, 10 ng/mL of Brain-derived neurotrophic factor (Batch H140108, PanBiotech) and 1 ng/mL of Glial-Derived Neurotrophic Factor (Batch H130917, Pan Biotech) Viable cells were counted in a Neubauer cytometer using the trypan blue exclusion test. […]

Experiment [2] shares this test system. Briefly: Neuroprotective effect on TH positive dopaminergic neuron survival following exposure to MPP+. Conditions: MPP+ 4 μM, 48 h. As for the experimental part: This study investigated the neuroprotective effect of the plant extract of the invention on rat primary mesencephalic cultures following exposure to 1-methyl-4-phenyl pyridinium (MPP^+).
In such assay, […] (BDNF) was used as standard molecule.
(§1) The mesencephalic neurons were cultivated as in preceding example.
On day 6 of culture, the medium was removed and fresh medium was added, without or with MPP^+ (Batch 092M4729V, Sigma, France) at 4 μM diluted in control medium. 6 wells per condition were assessed.
(§2) The cells were fixed, washed, permeabilized and non-specific sites were blocked.
The immunolabeled cultures were automatically examined with ImageXpress (Molecular Devices, United Kingdom) equipped with a LED at ×10 magnification. For each condition (6 culture wells), 20 automatically fields per well (representing ˜80% of the total surface of the well) were analyzed. The total number of TH neurons was automatically analyzed using MetaXpress software (Molecular Devices).
Data were expressed in percentage of control conditions (no MPP^+=100%) in order to express the MPP^+ injury. All values were expressed as mean+/−SEM (s.e.mean) of the 6 wells with statistical analyses on the different conditions (ANOVA followed by Dunnett's test when allowed, using GraphPad Prism software). […]

Experiment [3] has the same test system. Briefly: Neuroprotective effect on TH positive dopaminergic neuron survival following exposure to rotenone. Conditions: rotenone 10 nM, 24 hours, toxin alone. As to the method:
as §1, §2
For each condition (6 culture wells), 20 automatically fields per well (representing ˜80% of the total surface of the well) were analyzed. The total number of TH neurons was automatically analyzed using MetaXpress software (Molecular Devices).

As for `NCCc1cc(O)c(O)cc1O` [Composition 6-OHDA, 6-hydroxydopamine], the “cell death of TH positive neurons induced by the toxin” value (“cell death” below) in experiment [1] is given as over 25%.
`C[n+]1ccc(-c2ccccc2)cc1` [MPP^+, 1-methyl-4-phenyl pyridinium]: the “cell death” value in experiment [2] (toxin alone) is > 35% and > 30%.
Take `C=C(C)[C@H]1Cc2c(ccc3c2O[C@@H]2COc4cc(OC)c(OC)cc4[C@@H]2C3=O)O1` [Rotenone, rotenone]: the “cell death” value in experiment [3] is reported as about 40%.

B1: BDNF: Brain Derived Growth Factor (BDNF) used as standard molecule (protein, UniProt P23560 19-247, looked up)
Neurotrophic factor BDNF …: APMKEANIRGQGGLAYPGVRTHGTLESVNGPKAGSRGLTSLADTFEHVIEELLDEDQKVRPNEENNKDADLYTSRVMLSSQVPLEPPLLFLLEEYKNYLDAANMSMRVRRHSDPARRGELSVCDSISEWVTAADKKTAVDMSGGTVTVLEKVPVSKGQLKQYFYETKCNPMGYTKEGCRGIDKRHWNSQCRTTQSYVRALTMDSKKRIGWRFIRIDTSCVCTLTIKRGR
Consider B1, for which the “protection from MPP+ induced injuries” value in experiment [2] (50 ng/mL) is “able to significantly protect cells”.
